pEC50: −log10 of the molar value. Active and inactive are the calls of the source.
Tests used:
[1] = ADAM10 protease inhibitors, dose response, selectivity assay for ADAM17 exosite inhibitor project, biochemical, FRET peptide substrate, recombinant human ADAM10 (AID 743259);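 note: ADAM10 enzyme cleaving a FRET peptide substrate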
[2] = molecular target: T1, Disintegrin and metalloproteinase domain-containing protein 17 (Homo sapiens, UniProt P78536); assay: exosite inhibitors of ADAM17, dose response, biochemical (AID 743260)
T1 sequence (P78536 whole entry, the tested form may be a part): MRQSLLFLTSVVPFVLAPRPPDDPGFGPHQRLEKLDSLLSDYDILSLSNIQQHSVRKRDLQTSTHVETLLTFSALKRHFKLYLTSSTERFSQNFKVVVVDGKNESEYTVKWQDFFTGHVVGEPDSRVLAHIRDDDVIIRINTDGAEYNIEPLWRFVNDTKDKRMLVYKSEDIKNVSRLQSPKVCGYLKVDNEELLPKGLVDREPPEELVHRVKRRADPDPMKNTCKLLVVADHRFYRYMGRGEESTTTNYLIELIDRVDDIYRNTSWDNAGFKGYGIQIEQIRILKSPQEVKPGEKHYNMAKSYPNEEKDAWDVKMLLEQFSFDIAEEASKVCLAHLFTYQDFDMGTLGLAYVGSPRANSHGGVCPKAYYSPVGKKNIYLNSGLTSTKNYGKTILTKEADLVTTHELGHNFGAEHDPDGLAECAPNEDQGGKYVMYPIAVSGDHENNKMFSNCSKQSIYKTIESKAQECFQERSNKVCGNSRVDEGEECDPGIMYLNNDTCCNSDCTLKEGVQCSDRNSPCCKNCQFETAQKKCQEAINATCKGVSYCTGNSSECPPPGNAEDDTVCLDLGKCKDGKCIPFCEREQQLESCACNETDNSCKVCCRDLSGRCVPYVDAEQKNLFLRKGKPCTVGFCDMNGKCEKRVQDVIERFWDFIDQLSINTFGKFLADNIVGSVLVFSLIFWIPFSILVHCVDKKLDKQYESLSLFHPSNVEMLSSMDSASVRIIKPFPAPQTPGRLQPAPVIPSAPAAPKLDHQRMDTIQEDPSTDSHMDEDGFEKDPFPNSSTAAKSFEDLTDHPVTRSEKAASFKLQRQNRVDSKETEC

[3] = ADAM10 inhibitors, peptide cleavage, dose response, biochemical, QFRET (AID 743254);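 note: ADAM10 enzyme with the DM2 quenched FRET peptide as substrate; EDANS fluorescence gain as the protease cuts the substrate; inhibitor potency against ADAM10 proteolytic activity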
[4] = microbe, parasite or virus in culture; format: functional; details: Mycobacterium tuberculosis
[5] = molecular target: T1, Disintegrin and metalloproteinase domain-containing protein 17; assay: ADAM17 protease inhibitors, dose response, counter-screen for ADAM10 exosite inhibitor project, biochemical, quenched FRET substrate (AID 743253)
[6] = system: Vero; assay: Vero cell toxicity, dose response, cytotoxicity control, plate reader, cherry-pick samples (AID 687020); format: functional, cell-based; details: Chlorocebus sabaeus
[7] = system: A549; assay: A549 cell toxicity, dose response, cytotoxicity control, plate reader, cherry-pick samples (AID 687028); format: functional, cell-based; details: Homo sapiens
[8] = cytotoxicity in HeLa cells, dose response, cytotoxicity control, cell-based, plate reader, dry powder (AID 651946); format: functional
[9] = IRAP inhibitors, dose response, selectivity assay for ERAP1 modulator project, biochemical, Leu-AMC fluorescence, cherry-picked samples, set 2 (AID 743340)
[10] = molecular target: SWI/SNF-related matrix-associated actin-dependent regulator of chromatin subfamily A member 2 (Homo sapiens, UniProt P51531); assay: Luminescence-based cell-based high throughput dose response assay to identify activators of the function of SWI/SNF related, matrix associated, actin dependent regulator of chromatin, subfamily a, member 2 (SMARCA2, BRM).; format: functional
SWI/SNF-related matrix-associated actin-dependent regulator of chromatin subfamily A member 2, sequence (P51531 whole entry): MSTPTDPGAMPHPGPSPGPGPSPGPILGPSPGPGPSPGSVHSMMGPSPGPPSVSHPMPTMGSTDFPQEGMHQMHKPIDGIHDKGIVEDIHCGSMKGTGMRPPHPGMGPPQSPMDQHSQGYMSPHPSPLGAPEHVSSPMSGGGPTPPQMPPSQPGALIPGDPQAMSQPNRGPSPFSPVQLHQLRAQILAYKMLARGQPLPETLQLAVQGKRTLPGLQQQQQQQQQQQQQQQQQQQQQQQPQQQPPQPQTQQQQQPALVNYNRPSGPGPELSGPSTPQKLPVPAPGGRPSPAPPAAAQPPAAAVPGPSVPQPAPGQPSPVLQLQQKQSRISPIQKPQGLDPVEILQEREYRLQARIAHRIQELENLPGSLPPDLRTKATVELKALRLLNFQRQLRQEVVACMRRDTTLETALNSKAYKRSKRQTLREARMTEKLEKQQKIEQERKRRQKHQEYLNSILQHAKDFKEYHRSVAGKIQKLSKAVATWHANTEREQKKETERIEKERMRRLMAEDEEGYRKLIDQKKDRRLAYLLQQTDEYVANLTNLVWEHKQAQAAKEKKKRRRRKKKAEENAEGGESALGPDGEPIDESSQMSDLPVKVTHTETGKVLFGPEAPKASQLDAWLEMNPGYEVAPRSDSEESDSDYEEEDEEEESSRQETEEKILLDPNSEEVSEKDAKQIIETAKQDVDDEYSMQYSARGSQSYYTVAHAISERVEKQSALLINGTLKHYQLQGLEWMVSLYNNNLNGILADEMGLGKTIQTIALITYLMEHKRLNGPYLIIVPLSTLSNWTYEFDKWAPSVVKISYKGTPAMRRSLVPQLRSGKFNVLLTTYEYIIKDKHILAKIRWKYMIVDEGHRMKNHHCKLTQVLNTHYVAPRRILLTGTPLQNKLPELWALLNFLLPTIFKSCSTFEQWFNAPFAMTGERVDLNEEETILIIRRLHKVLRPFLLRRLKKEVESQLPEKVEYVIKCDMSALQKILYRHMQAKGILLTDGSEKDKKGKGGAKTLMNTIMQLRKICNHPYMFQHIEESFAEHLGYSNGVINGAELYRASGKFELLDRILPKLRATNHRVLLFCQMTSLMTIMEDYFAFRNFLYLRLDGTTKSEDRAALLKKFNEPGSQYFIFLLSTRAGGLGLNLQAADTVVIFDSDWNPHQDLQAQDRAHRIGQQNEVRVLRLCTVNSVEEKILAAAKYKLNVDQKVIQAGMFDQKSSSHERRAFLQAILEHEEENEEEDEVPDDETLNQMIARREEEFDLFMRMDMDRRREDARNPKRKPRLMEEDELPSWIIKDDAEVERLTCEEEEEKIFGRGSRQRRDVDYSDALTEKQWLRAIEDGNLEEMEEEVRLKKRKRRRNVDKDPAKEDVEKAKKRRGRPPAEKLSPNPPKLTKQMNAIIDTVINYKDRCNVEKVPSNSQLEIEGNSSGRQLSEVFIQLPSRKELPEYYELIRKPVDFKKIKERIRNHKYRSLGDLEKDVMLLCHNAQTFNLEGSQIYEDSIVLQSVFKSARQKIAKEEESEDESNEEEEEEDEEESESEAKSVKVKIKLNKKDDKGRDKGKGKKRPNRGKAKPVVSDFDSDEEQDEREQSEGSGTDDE

[11] = Counterscreen for activators of the function of SWI/SNF related, matrix associated, actin dependent regulator of chromatin, subfamily a, member 2 (SMARCA2, BRM): Luminescence-based cell-based high throughput dose response assay to identify non-selective compounds using the VP16 reporter assay.; format: functional
[12] = cells; format: functional, cell-based
[13] = cells; format: functional, cell-based; remark: listed apart in the source
[14] = molecular target: T2, Trace amine-associated receptor 1 (Homo sapiens, UniProt Q96RJ0); assay: Counterscreen for agonists of the human trace amine associated receptor 1 (hTAAR1): Fluorescence-based cell-based high throughput dose response assay to identify hTAAR1 agonist that also desensitize TAAR1 receptor response.; format: functional
T2 sequence (Q96RJ0 whole entry): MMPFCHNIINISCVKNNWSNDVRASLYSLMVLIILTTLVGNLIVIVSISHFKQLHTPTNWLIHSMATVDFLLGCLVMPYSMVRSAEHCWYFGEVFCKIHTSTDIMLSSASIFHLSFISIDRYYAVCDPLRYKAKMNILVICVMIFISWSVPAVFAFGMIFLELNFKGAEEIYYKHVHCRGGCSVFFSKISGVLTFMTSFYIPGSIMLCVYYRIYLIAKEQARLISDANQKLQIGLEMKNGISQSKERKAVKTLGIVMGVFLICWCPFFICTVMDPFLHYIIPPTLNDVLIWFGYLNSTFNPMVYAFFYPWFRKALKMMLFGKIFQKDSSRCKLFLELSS

[15] = molecular target: T2, Trace amine-associated receptor 1; assay: Fluorescence-based cell-based high throughput dose response assay to identify agonists of the human trace amine associated receptor 1 (TAAR1).; format: functional
[16] = molecular target: Metabotropic glutamate receptor 5 (Rattus norvegicus, UniProt P31424); assay: Identification of a glycine sulfonamide based non-MPEP site positive allosteric potentiator (PAM) of mGlu5 (calcium_assay).; format: functional
Metabotropic glutamate receptor 5, sequence (P31424 whole entry): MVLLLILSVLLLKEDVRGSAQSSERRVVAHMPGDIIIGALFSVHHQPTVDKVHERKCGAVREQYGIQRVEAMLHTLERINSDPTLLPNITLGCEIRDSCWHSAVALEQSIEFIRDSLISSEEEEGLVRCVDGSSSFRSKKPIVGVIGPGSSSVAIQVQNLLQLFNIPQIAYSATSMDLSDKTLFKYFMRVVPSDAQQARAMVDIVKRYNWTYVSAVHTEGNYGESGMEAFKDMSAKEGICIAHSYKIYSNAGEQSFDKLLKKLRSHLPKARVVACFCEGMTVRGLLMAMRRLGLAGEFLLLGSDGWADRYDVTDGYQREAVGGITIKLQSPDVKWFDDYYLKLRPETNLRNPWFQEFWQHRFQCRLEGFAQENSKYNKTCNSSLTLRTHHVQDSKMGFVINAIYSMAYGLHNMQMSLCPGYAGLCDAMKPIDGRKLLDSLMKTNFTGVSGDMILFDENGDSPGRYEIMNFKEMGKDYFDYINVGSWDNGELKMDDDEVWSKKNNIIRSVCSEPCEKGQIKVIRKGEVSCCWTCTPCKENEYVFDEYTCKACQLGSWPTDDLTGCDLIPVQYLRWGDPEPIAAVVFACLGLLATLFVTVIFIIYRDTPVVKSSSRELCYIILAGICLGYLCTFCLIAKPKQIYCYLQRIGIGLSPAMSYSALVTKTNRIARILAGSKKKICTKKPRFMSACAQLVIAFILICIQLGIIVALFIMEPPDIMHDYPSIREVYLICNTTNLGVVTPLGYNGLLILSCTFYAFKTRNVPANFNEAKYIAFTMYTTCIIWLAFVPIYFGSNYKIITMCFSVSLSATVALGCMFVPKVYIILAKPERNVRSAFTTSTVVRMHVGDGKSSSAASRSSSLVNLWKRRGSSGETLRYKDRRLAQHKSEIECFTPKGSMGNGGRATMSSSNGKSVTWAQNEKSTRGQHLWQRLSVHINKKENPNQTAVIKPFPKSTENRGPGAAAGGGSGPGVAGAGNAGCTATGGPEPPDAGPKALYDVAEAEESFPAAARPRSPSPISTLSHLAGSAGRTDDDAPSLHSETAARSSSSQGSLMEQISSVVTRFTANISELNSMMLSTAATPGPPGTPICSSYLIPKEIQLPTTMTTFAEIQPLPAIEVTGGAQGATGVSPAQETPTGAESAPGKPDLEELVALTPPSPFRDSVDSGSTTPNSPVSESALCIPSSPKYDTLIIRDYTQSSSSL

[17] = HEK293T cytotoxicity, dose response, cytotoxicity control for miR-122 modulator project, cell-based, inhibitor set, cherry-pick, set 2 (AID 720697); format: functional

Compound: Cc1ccccc1NC1=NC(=O)/C(=C/c2cccn2C)S1
- IC50 [1]: > 69.5 µM (inactive)
- IC50 [2]: > 69.5 µM (inactive)

Compound: Cc1ccc(C)c(S(=O)(=O)N2CCC(c3nc(O)c4nnn(Cc5ccc6c(c5)OCCO6)c4n3)CC2)c1
- IC50 [3]: > 69.5 µM (inactive)
- CC50 [4]: > 40 µM (active)
- IC50 [5]: > 69.5 µM (inactive)

Compound: CN(C)C1(CNC(=O)C2CCN(S(=O)(=O)c3ccccc3C(F)(F)F)CC2)CCCCC1
- AC50 [6]: 36.2 µM (active)

Compound: CCOC(=O)[C@]12CCC=C1N(Cc1ccccc1)C(=O)[C@H](CC(=O)N1CCCC1)C2
- AC50 [7]: 25.3 µM (active)

Compound: c1ccc(-c2nnc(SCc3cscn3)o2)cc1
- AC50 [8]: > 52 µM (inactive)

Compound: CCCN(C)C[C@@H]1OCCCC[C@H](C)Oc2ccc(NC(=O)Nc3ccc(F)cc3)cc2C(=O)N([C@H](C)CO)C[C@@H]1C
- AC50 [9]: 13.1 µM (active)

Compound: O=C(C=Cc1ccc(OCc2ccccc2)cc1)c1c(F)cccc1F
- EC50 [10]: > 91.2 µM (inactive)
- EC50 [11]: > 91.2 µM (inactive)

Compound: CC(C)[C@H](NC(=O)c1ccc(Cl)cc1Cl)C(=O)N1CCC[C@H]1C(=O)NCCc1ccccc1Cl
- EC50 [12]: > 29.9 µM (inactive)
- IC50 [13]: > 29.9 µM (inactive)
- IC50 [14]: 3.47 µM (active)
- EC50 [15]: 1.19 µM (active)

Compound: O=S(=O)(c1ccc(F)cc1)N1CCCC(c2nc(-c3ccc(F)cc3)no2)C1 (configuration not stated)
- pEC50 [16]: 5.34

Compound: CCNC(=O)CCC(=O)Nc1cc(Cl)ccc1C
- AC50 [17]: 9 µM (active)

Source: ChEMBL document CHEMBL1201862, “PubChem BioAssay data set” (2004)
